Key:
Assay type in all cases: cell-based, human
PC-3 cells = assay: Clonogenic assay in PC-3
Experimental: FIG. 7. Clonogenic assays in prostate cancer cells treated with compound I-1. Prostate cancer cells, DU145 (A) or PC3 (B), were plated at very low density in 6-well plates and incubated 18 h at 37° C. Cells were treated by addition of various concentrations of compound I-1 or with an equivalent volume of vehicle (DMSO), or were left untreated. After 10 days of treatment, cells were washed with cold PBS, fixed with paraformaldehyde, and stained with crystal violet solution.
Clonogenic Assay. Cells in fresh complete medium were plated at very low density (3×10^2 per well) into six-well plates for 18 h. After complete adhesion, cells were treated with compound I-1 by adding directly to the medium to give the concentration indicated in the figures. Cells were allowed to grow until visible colonies formed (10 days). Cell colonies were fixed with 4% paraformaldehyde in PBS (phosphate-buffered saline), stained with 0.25% crystal violet in 25% methanol, washed and air-dried.

DU145 cells [1] = assay: Immunofluorescence (confocal) microscopy, α-tubulin and DAPI; settings: 10 μM
Experimental: FIG. 14. Fluorescent microscopy of DU145 prostate cancer cells. DU145 cells were plated in culture dishes designed for confocal microscopy and allowed to adhere for 18 hours at 37° C. They were then for incubated for a further 24 and 48 h with 10 μM compound I-1 or 48 h with vehicle (DMSO). After that, cells were washed with cold PBS, fixed with 4% paraformaldehyde, and permeabilized with 0.1% Triton 100X. Cells were stained with 4′6-diamidino-2-phenylindole (DAPI), which binds to DNA, and with anti-α-tubulin antibody labeled with Alexa Fluor 488 to show the location of microtubules. Scale bars indicate a length of […], arrows indicate cells with evidence of aberrant mitosis, and asterisks indicate cells with apoptotic morphology.
Immunofluorescence microscopy. Cells (2.5×10^4) in fresh complete culture medium were plated on 18 mm diameter glass cover slips for 18 h. The medium was replaced with complete medium containing 10 μM compound I-1 or an equivalent volume of vehicle (DMSO) and incubated for 24 or 48 h. After incubation, cells were washed 3 times with ice-cold PBS, fixed in 4% paraformaldehyde in PBS for 30 min at room temperature, and washed three times with PBS. Cells were permeabilized for 1 min in PBS containing 0.1% Triton X-100, and washed three times with PBS. […]

DU145 cells [2] = assay: Immunoblotting of apoptotic markers (cleaved caspase-3, PARP-1) in DU145
Experimental: FIG. 13. Assays to detect apoptosis in DU145 cells. Prostate cancer cells were left untreated (−) or treated with 10 μM compound I-1 or with vehicle (DMSO) for the time indicated in the figure. (A) After treatment, cells were harvest by trypsinization, washed with PBS, and then incubated with FITC-conjugated Annexin V and propidium iodide. Flow cytometric analysis was performed. The histogram for each sample was split into four quadrants to indicate: viable cells (lower left quadrant), apoptotic cells (lower right quadrant), necrotic cells (upper left quadrant), and necrotic/late apoptotic cells (upper right quadrant). (B) After treatment, cells were lysed and total lysates were analyzed for cellular apoptotic markers by immunoblotting using anti-[…] or antibodies specific to the activated form of Caspase-3 (cleaved Caspase-3). Anti-GAPDH-1 antibody was used as loading control. (C) Some cells were harvested by trypsinization, washed with PBS, and total DNA was extracted then analyzed on a 1.8% agarose gel. M indicates DNA size marker (base pairs).
Cell Culture and Treatment. All cells were obtained from ATCC and were grown in a humidified incubator at 37° C. with 5% CO2. DU145 (hormone-refractory prostate cancer) cells were grown in DMEM and PC3 (hormone-refractory prostate cancer) were grown in F-12K medium supplemented with 10% fetal bovine serum (FBS; Life Technologies), 62.5 μg/mL penicillin and 100 μg/mL streptomycin (Hyclone Laboratories, Logan, Utah). Cells (1×10^6) in fresh complete culture medium were plated on 10 cm diameter tissue dishes for 18 h. Cells for biochemical analyses cells were lysed in lysis buffer (150 mM NaCl, 2 mM EDTA, 50 mM Tris-HCl, 0.25% deoxycholic acid, 1% octylphenoxypolyethoxyethanol (IGEPAL CA-630), pH 7.5) containing protease and phosphatase inhibitor cocktails (Calbiochem, Billerica, Mass.) for 10 min at 4° C. and then cleared by centrifugation at 16,000 g for 10 min at 4° C. All protein concentrations were determined using the bicinchoninic acid (BCA) protein assay (Pierce, Rockford, Ill.).
Immunoblotting. Samples were resolved by 4-20% precast linear gradient SDS-Tris polyacrylamide gel electrophoresis (Bio-rad Bio-Rad Laboratories, Hercules, Calif.) and then electrotransferred onto polyvinylidine fluoride membranes (Millipore, Bedford, Mass.) in Tris-glycine buffer containing 20% methanol. […] Antibody-reactive proteins were detected using a chemiluminescence substrate (SuperSignal; Pierce, Rockford, Ill.) according to the manufacturer's instructions. […]
Next, to further confirm that compound I-1 induces apoptosis in prostate cancer cells, we evaluated key apoptotic molecular markers. […]

## C[C@@H]1CC[C@H]2C3C(O[C@]4([C@]5(O)CC6(C)C(=O)OC5C[C@@]6(C)O)CC[C@@]31O4)[C@H]1O[C@]13CC=CC(=O)[C@]23C (some centres unmarked) [I-1]
PC-3 cells; 2.5 μM, 10 days
  effect on colony formation: Inhibitory effects
PC-3 cells; 10 days of treatment
  concentration that blocked the capacity of single cancer cells to generate colonies: ≥ 5 µM
DU145 cells [1]; 24 h
  cells with evidence of aberrant mitosis: increased number
DU145 cells [1]; 48 h
  cells with evidence of abnormal mitosis or apoptosis: almost all of the cells
DU145 cells [2]; 10 μM, 48 h and 72 h
  activated caspase-3: detected
  cleavage of PARP-1 protein (additional band at 89 kDa): detected
DU145 cells [2]; time periods shorter than 48 h
  Caspase-3 activation: could not be detected
  PARP-1 cleavage: could not be detected
